Experimental data as given in US9409952B2, “Peptide-compound cyclization method” (Chugai Seiyaku Kabushiki Kaisha, priority 2011, dated 2016).
Starred links: 1 amine or outer side, 2 acyl side, 3 side chain; linkers in the order of their positions; H or OH if unused. Positions of bridges follow the written chain, without caps; N, C: chain ends. Non-standard residues stand in square brackets, D forms with d. Residues, ends and D or L forms follow the SMILES beside them. *: point of attachment. hhPhe = N[C@@H](CCCc1ccccc1)C(=O)O; NMeF = CN[C@@H](Cc1ccccc1)C(=O)O; hPhe = N[C@@H](CCc1ccccc1)C(=O)O; NMeβAla = CN(CCC(=O)[*:2])[*:1]; NMeL = CN[C@@H](CC(C)C)C(=O)O; NMeV = CN[C@H](C(=O)O)C(C)C; NMeA = CN[C@@H](C)C(=O)O; Piperidide = C1CCN(*)CC1; Sar = CNCC(=O)O; tBu = CC(C)(C)*

Tests used:
[1] = Metabolic stability in human hepatic microsome; format: in vitro ADME; conditions: microsomes, pH 7.4; human hepatic microsome, NADPH(+); read-out: CL NADPH(+)
[2] = PAMPA (parallel artificial membrane permeability assay); format: in vitro ADME; conditions: PAMPA; membrane permeation rate (Pe); 50 mM MOPSO buffer pH 6.5 with 5.0% glycocholic acid, 37° C., 18 hours; read-out: iPAMPA Pe
In short: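 Artificial membrane was 10% (w/v) egg lecithin plus 0.5% (w/v) cholesterol in dodecane on a PVDF filter. A 10 mM DMSO stock was added at 0.5% (v/v) to donor buffer (50 mM MOPSO, pH 6.5, 5.0% glycocholic acid). After 18 h at 37 °C, LC/MS or LC/UV gave donor and acceptor levels for Pe.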

SMILES	microsomal CLint at 1 uM [1] [µL/min/mg]	Papp at 18 hours, 50 µM [2] [×10⁻⁶ cm/s]
CC[C@H](C)[C@@H]1NC(=O)[C@H](CC(C)C)NC(=O)[C@H](C(C)C)NC(=O)[C@H](CC(C)C)N(C)C(=O)[C@H](CC(C)C)NC(=O)[C@H](CCc2ccccc2)NC(=O)[C@H]([C@@H](C)O)NC(=O)[C@H](C)N(C)C(=O)[C@H](CC(C)C)NC(=O)[C@H](C)N(C)C(=O)C[C@@H](C(=O)N2CCCCC2)NC1=O [DP-728] ([NMeA]L[NMeA]T[hPhe]L[NMeL]VLID-Piperidide; lactam N-11)	42	6.5
CC[C@H](C)[C@@H]1NC(=O)[C@H](CC(C)C)NC(=O)[C@H](C(C)C)NC(=O)[C@H](CC(C)C)N(C)C(=O)[C@H](CC(C)C)NC(=O)[C@H](CCCc2ccccc2)NC(=O)[C@H]([C@@H](C)O)NC(=O)[C@H](C)N(C)C(=O)[C@H](CC(C)C)NC(=O)[C@H](C)N(C)C(=O)C[C@@H](C(=O)N2CCCCC2)NC1=O [DP-729] ([NMeA]L[NMeA]T[hhPhe]L[NMeL]VLID-Piperidide; lactam N-11)	54	4.7
CC[C@H](C)[C@@H]1NC(=O)[C@H](Cc2ccccc2)N(C)C(=O)[C@H](CCCc2ccccc2)NC(=O)[C@H](C(C)C)N(C)C(=O)[C@H](CC(C)C)N(C)C(=O)[C@H](CC(C)C)NC(=O)[C@@H](C)NC(=O)C[C@@H](C(=O)N2CCCCC2)NC(=O)[C@H]([C@@H](C)O)NC(=O)[C@H](C)NC(=O)[C@H](C)N(C)C1=O [DP-731] ([dA]L[NMeL][NMeV][hhPhe][NMeF]I[NMeA]ATD-Piperidide; lactam N-11)	53	48
CC(C)C[C@@H]1NC(=O)[C@@H]2CCCN2C(=O)[C@H](Cc2ccccc2)N(C)C(=O)[C@H](C)N(C)C(=O)[C@H]([C@@H](C)O)NC(=O)[C@@H](C(C)C)NC(=O)C[C@@H](C(=O)N2CCCCC2)NC(=O)[C@H](CC(C)C)N(C)C(=O)[C@H](C)N(C)C(=O)[C@H](CCc2ccccc2)NC(=O)[C@H](C(C)C)N(C)C1=O [DP-732] ([dV]T[NMeA][NMeF]PL[NMeV][hPhe][NMeA][NMeL]D-Piperidide; lactam N-11)	57	26
CC(C)C[C@@H]1NC(=O)[C@@H]2CCCN2C(=O)[C@H](Cc2ccccc2)N(C)C(=O)[C@H](C)N(C)C(=O)[C@H]([C@@H](C)O)NC(=O)[C@@H](C(C)C)NC(=O)C[C@@H](C(=O)N2CCCCC2)NC(=O)[C@H](CC(C)C)N(C)C(=O)[C@H](C)N(C)C(=O)[C@H](CCCc2ccccc2)NC(=O)[C@H](C(C)C)N(C)C1=O [DP-733] ([dV]T[NMeA][NMeF]PL[NMeV][hhPhe][NMeA][NMeL]D-Piperidide; lactam N-11)	97	26
CC(C)C[C@H]1C(=O)N(C)[C@@H](C(C)C)C(=O)N(C)[C@@H](C)C(=O)N[C@@H](CCc2ccccc2)C(=O)N(C)[C@@H](C)C(=O)N[C@H](C(=O)N2CCCCC2)CC(=O)N(C)[C@@H](C)C(=O)N[C@@H]([C@@H](C)O)C(=O)N(C)[C@@H](C)C(=O)N[C@@H](C)C(=O)N(C)[C@@H](Cc2ccccc2)C(=O)N1C [DP-734] ([NMeA]T[NMeA]A[NMeF][NMeL][NMeV][NMeA][hPhe][NMeA]D-Piperidide; lactam N-11)	84	16
CC(C)C[C@H]1C(=O)N(C)[C@@H](C(C)C)C(=O)N(C)[C@@H](C)C(=O)N[C@@H](CCCc2ccccc2)C(=O)N(C)[C@@H](C)C(=O)N[C@H](C(=O)N2CCCCC2)CC(=O)N(C)[C@@H](C)C(=O)N[C@@H]([C@@H](C)O)C(=O)N(C)[C@@H](C)C(=O)N[C@@H](C)C(=O)N(C)[C@@H](Cc2ccccc2)C(=O)N1C [DP-735] ([NMeA]T[NMeA]A[NMeF][NMeL][NMeV][NMeA][hhPhe][NMeA]D-Piperidide; lactam N-11)	88	21
CC(C)C[C@@H]1NC(=O)[C@H](C(C)C)N(C)C(=O)[C@H](CCc2ccccc2)NC(=O)CN(C)C(=O)[C@H]([C@@H](C)O)NC(=O)[C@H](C)N(C)C(=O)[C@H](CC(C)C)N(C)C(=O)[C@@H](C(C)C)NC(=O)C[C@@H](C(=O)N2CCCCC2)NC(=O)[C@H](C)NC(=O)[C@H](CC(C)C)N(C)C1=O [DP-736] ([dV][NMeL][NMeA]T[Sar][hPhe][NMeV]L[NMeL]AD-Piperidide; lactam N-11)	47	27
CC(C)C[C@@H]1NC(=O)[C@H](C(C)C)N(C)C(=O)[C@H](CCCc2ccccc2)NC(=O)CN(C)C(=O)[C@H]([C@@H](C)O)NC(=O)[C@H](C)N(C)C(=O)[C@H](CC(C)C)N(C)C(=O)[C@@H](C(C)C)NC(=O)C[C@@H](C(=O)N2CCCCC2)NC(=O)[C@H](C)NC(=O)[C@H](CC(C)C)N(C)C1=O [DP-737] ([dV][NMeL][NMeA]T[Sar][hhPhe][NMeV]L[NMeL]AD-Piperidide; lactam N-11)	45	30
CC(C)C[C@@H]1NC(=O)[C@H](CC(C)C)N(C)C(=O)C[C@@H](C(=O)N2CCCCC2)NC(=O)[C@H](C)N(C)C(=O)[C@H](CC(C)C)N(C)C(=O)[C@H]([C@@H](C)O)NC(=O)[C@H](Cc2ccccc2)N(C)C1=O [DP-738] ([NMeL]L[NMeF]T[NMeL][NMeA]D-Piperidide; lactam N-7)	221	22
CC(C)C[C@H]1C(=O)N[C@H](C(=O)N2CCCCC2)CC(=O)N[C@H](C)C(=O)N(C)[C@@H](C)C(=O)N(C)[C@@H](Cc2ccccc2)C(=O)N(C)[C@@H](CC(C)C)C(=O)N[C@@H]([C@@H](C)O)C(=O)N1C [DP-739] ([dA][NMeA][NMeF][NMeL]T[NMeL]D-Piperidide; lactam N-7)	164	18
CC(C)C[C@H]1C(=O)N[C@H](C(=O)N2CCCCC2)CC(=O)N[C@H](C)C(=O)N(C)[C@@H](CC(C)C)C(=O)N(C)[C@@H](Cc2ccccc2)C(=O)N(C)[C@@H](CC(C)C)C(=O)N[C@@H]([C@@H](C)O)C(=O)N1C [DP-740] ([dA][NMeL][NMeF][NMeL]T[NMeL]D-Piperidide; lactam N-7)	483	31
CC(C)C[C@@H]1NC(=O)[C@H](CC(C)C)N(C)C(=O)[C@H](C)N(C)C(=O)[C@H]([C@@H](C)O)NC(=O)[C@H](Cc2ccccc2)N(C)C(=O)[C@@H](C)NC(=O)C[C@@H](C(=O)N2CCCCC2)NC1=O [DP-741] ([dA][NMeF]T[NMeA][NMeL]LD-Piperidide; lactam N-7)	169	10
CC(C)C[C@@H]1NC(=O)[C@H]([C@@H](C)O)NC(=O)[C@H](CC(C)C)N(C)C(=O)[C@H](Cc2ccccc2)N(C)C(=O)CN(C)C(=O)[C@@H](C)NC(=O)C[C@@H](C(=O)N2CCCCC2)NC1=O [DP-742] ([dA][Sar][NMeF][NMeL]TLD-Piperidide; lactam N-7)	175	15
CC(C)C[C@H]1C(=O)N[C@@H](COC(C)(C)C)C(=O)N(C)[C@@H](Cc2ccccc2)C(=O)N(C)[C@@H](CC(C)C)C(=O)N[C@H](C(=O)N2CCCCC2)CC(=O)N(C)CC(=O)N[C@@H]([C@@H](C)O)C(=O)N1C [DP-743] ([Sar]T[NMeL]S(tBu)[NMeF][NMeL]D-Piperidide; lactam N-7)	126	16
CC(C)C[C@@H]1NC(=O)[C@H](CC(C)C)N(C)C(=O)CN(C)C(=O)[C@H]([C@@H](C)O)NC(=O)[C@H](C)N(C)C(=O)C[C@@H](C(=O)N2CCCCC2)NC(=O)[C@H](Cc2ccccc2)N(C)C1=O [DP-744] ([NMeA]T[Sar][NMeL]L[NMeF]D-Piperidide; lactam N-7)	61	12
CC(C)C[C@@H]1NC(=O)C[C@@H](C(=O)N2CCCCC2)NC(=O)[C@H]([C@@H](C)O)NC(=O)[C@H](CC(C)C)N(C)C(=O)CN(C)C(=O)[C@H](Cc2ccccc2)N(C)C(=O)[C@H](C)N(C)C1=O [DP-745] (L[NMeA][NMeF][Sar][NMeL]TD-Piperidide; lactam N-7)	232	17
CC(C)C[C@H]1C(=O)N[C@@H](COC(C)(C)C)C(=O)N(C)[C@@H](Cc2ccccc2)C(=O)N(C)[C@@H](CC(C)C)C(=O)N[C@H](C(=O)N2CCCCC2)CC(=O)N(C)CCC(=O)N[C@@H]([C@@H](C)O)C(=O)N1C [DP-746] ([NMeβAla]T[NMeL]S(tBu)[NMeF][NMeL]D-Piperidide; lactam N-7)	318	47
CC(C)C[C@H]1C(=O)N[C@@H]([C@@H](C)O)C(=O)N[C@@H](COC(C)(C)C)C(=O)N[C@H](C(=O)N2CCCCC2)CC(=O)N(C)CCC(=O)N(C)[C@@H](Cc2ccccc2)C(=O)N(C)[C@@H](CC(C)C)C(=O)N1C [DP-747] ([NMeβAla][NMeF][NMeL][NMeL]TS(tBu)D-Piperidide; lactam N-7)	248	20
CC(C)C[C@H]1C(=O)N[C@@H](COC(C)(C)C)C(=O)N[C@@H]([C@@H](C)O)C(=O)N(C)[C@@H](Cc2ccccc2)C(=O)N(C)[C@@H](CC(C)C)C(=O)N[C@H](C(=O)N2CCCCC2)CC(=O)N[C@@H](C(C)C)C(=O)N1C [DP-748] (V[NMeL]S(tBu)T[NMeF][NMeL]D-Piperidide; lactam N-7)	341	45
CC(C)C[C@H]1C(=O)N[C@@H]([C@@H](C)O)C(=O)N(C)[C@@H](Cc2ccccc2)C(=O)N[C@@H](COC(C)(C)C)C(=O)N[C@H](C(=O)N2CCCCC2)CC(=O)N[C@@H](C(C)C)C(=O)N(C)CC(=O)N1C [DP-749] (V[Sar][NMeL]T[NMeF]S(tBu)D-Piperidide; lactam N-7)	56	17
CC(C)C[C@H]1C(=O)N[C@H](C(=O)N2CCCCC2)CC(=O)N(C)CCC(=O)N[C@@H]([C@@H](C)O)C(=O)N(C)CC(=O)N[C@@H](COC(C)(C)C)C(=O)N(C)[C@@H](Cc2ccccc2)C(=O)N1C [DP-750] ([NMeβAla]T[Sar]S(tBu)[NMeF][NMeL]D-Piperidide; lactam N-7)	49	13
